Measurements taken from patent US12018059B2, “Human amylin analog polypeptides and methods of use” (Intarcia Therapeutics, Inc., priority 2018, dated 2024).
Starred links: 1 amine or outer side, 2 acyl side, 3 side chain; linkers in the order of their positions; H or OH if unused. Positions of bridges follow the written chain, without caps; N, C: chain ends. Residues, ends and D or L forms follow the SMILES beside them. Groups on a side chain read outwards from the residue. *: point of attachment. X4 = CCCCCCCCCCCCCCCC(=O)N[C@@H](CCC(=O)NCOCCOCC(=O)NCOCCOCC(=O)*)C(=O)O; C17 diacid = O=C(O)CCCCCCCCCCCCCCCC(=O)*; γGlu = O=C(O)[C@H](CCC(=O)[*:2])N[*:1]; Palmitoyl = CCCCCCCCCCCCCCCC(=O)*; AEEA = NCCOCCOCC(=O)O

Test: in vivo
Parameters: species or system Sprague-Dawley rats
Conditions: rat, iv, 0.033 mg/kg
Protocol: Peptides were dissolved in sterile saline and administered as a 1-hour intravenous infusion to non-fasted male Sprague-Dawley rats (n=3 per group) via femoral vein cannula at a final dose of 0.033 mg/kg. […] Blood samples (approximately 250 μL) were collected for pharmacokinetic analysis via a jugular vein cannula at 0.25, 0.5, 0.75, 1, 1.17, 1.33, 1.5, 2, 4, 6, 8, 24, 30 and 48 hr post-start of infusion into microtainer tubes containing K2EDTA as anticoagulant and 25 μL of a protease inhibitor cocktail. Plasma was prepared by centrifugation and stored at −80° C. until analysis. The results of this analysis are shown in Table 9 and few exemplars in FIGS. 3a-3b. […]
A 60 μL aliquot of each plasma sample was placed into to a 96-well plate. To each well was added 6 μL of 0.5% Tween-20. Plates were then vortexed mixed for 10 minutes at 1200 rpm before 180 μL of 0.1% TFA in 2:1 ethanol:acetonitrile containing an appropriate internal standard was added to each well. Plates were vortex mixed for 5 min at 1300 rpm, and then centrifuged for 10 min at 2844×g. Supernatants (180 μL) were placed into a clean 96-well plate and evaporated under a nitrogen stream at 45° C. Residues were reconstituted in 80 μL of 20% acetonitrile (aq) containing 0.1% formic acid.
A […] aliquot of each plasma sample was diluted with […] of 10 mM ammonium acetate (pH 6.8) containing an appropriate internal standard and loaded onto an Oasis WCX microElution plate (Waters Corporation, Milford, MA) that had been pre-conditioned with […] of methanol and […] of deionized water. Samples were washed with […] of 5% ammonium hydroxide (aq) followed by […] of 20% acetonitrile in water. The analyte was eluted with […] of 5% formic acid in 75:25 acetonitrile:water. The eluent was dried under a nitrogen stream. Residues were reconstituted in 80 μL of 20% acetonitrile (aq) containing 0.1% formic acid.
All calibration standards were prepared in control rat plasma containing K2EDTA and protease inhibitor cocktail.
Samples and standards were analyzed by TurbolonSpray™ UPLC-MS/MS using a system consisting of a CTC HTS PAL auto-injector (Leap, Carrboro, NC), an Agilent Infinity 1290 system with column oven (Palo Alto, CA), a Valco switching valve (Houston, TX), and either an AB Sciex API 5600 TripleTOF™ or Sciex API 4000QTrap mass spectrometer (Framingham, MA). Samples were injected onto a 2.1×50 mm reverse phase C18 analytical column, typically a Waters CORTECS UPLC C18+, 1.6 μm (Waters Corporation, Milford, MA) or similar. […] Initial conditions consisted of 90% A and 10% B. The organic component was increased to 95% B over a period of 3-4 minutes, depending on the peptide. Typical flow rates were 600 μL/min. The column temperature was held constant at 40 or 50° C. Peptides were quantified by monitoring one or more product ions produced from a multiply charged parent ion.

| SMILES | Vd (male, Sprague-Dawley) [L/kg] | clearance (male, Sprague-Dawley) [mL/min/kg] | half-life (male, Sprague-Dawley) [h] | Vd [L/kg] | clearance [mL/min/kg] | half-life [h] |
| --- | --- | --- | --- | --- | --- | --- |
| CC[C@H](C)[C@H](NC(=O)[C@@H]1CCCN1C(=O)CNC(=O)[C@H](Cc1ccccc1)NC(=O)[C@H](CC(N)=O)NC(=O)[C@H](CC(N)=O)NC(=O)[C@H](CO)NC(=O)[C@H](CO)NC(=O)[C@H](CCCCN)NC(=O)[C@H](Cc1c[nH]cn1)NC(=O)[C@H](CCCCNC(=O)CCCCCCCCCCCCCCCC(=O)O)NC(=O)[C@H](CCC(=O)O)NC(=O)[C@H](CC(N)=O)NC(=O)[C@H](C)NC(=O)[C@H](CC(C)C)NC(=O)[C@H](CCCNC(=N)N)NC(=O)[C@H](CCC(N)=O)NC(=O)[C@@H](NC(=O)[C@H](C)NC(=O)[C@@H]1CSSC[C@H](NC(=O)[C@@H](N)CO)C(=O)N[C@@H](CC(N)=O)C(=O)N[C@@H]([C@@H](C)O)C(=O)N[C@@H](CO)C(=O)N[C@@H]([C@@H](C)O)C(=O)N1)[C@@H](C)O)C(=O)N[C@@H](CC(C)C)C(=O)N1CCC[C@H]1C(=O)N1CCC[C@H]1C(=O)N[C@H](C(=O)N[C@@H](CCCCN)C(=O)N[C@H](C(=O)NCC(=O)N[C@@H](CO)C(=O)N[C@@H](CCC(=O)O)C(=O)N[C@H](C(=O)N[C@@H](Cc1ccc(O)cc1)C(N)=O)[C@@H](C)O)C(C)C)[C@@H](C)O [Compound A79] (H-SCNTSTCATQRLANEK(C17 diacid)HKSSNNFGPILPPTKVGSETY-NH2; disulfide 2-7; N-terminus assumed) | 0.115 | 0.162 | 7.8 |  |  |  |
| CCCCCCCCCCCCCCCC(=O)N[C@@H](CCC(=O)NCOCCOCC(=O)NCOCCOCC(=O)N[C@@H](CCC(=O)NCCCC[C@H](NC(=O)[C@H](CCC(=O)O)NC(=O)[C@H](CC(N)=O)NC(=O)[C@H](C)NC(=O)[C@H](CC(C)C)NC(=O)[C@H](CCCNC(=N)N)NC(=O)[C@H](CCC(N)=O)NC(=O)[C@@H](NC(=O)[C@H](C)NC(=O)[C@@H]1CSSC[C@H](NC(=O)[C@@H](N)CO)C(=O)N[C@@H](CC(N)=O)C(=O)N[C@@H]([C@@H](C)O)C(=O)N[C@@H](CO)C(=O)N[C@@H]([C@@H](C)O)C(=O)N1)[C@@H](C)O)C(=O)N[C@@H](Cc1c[nH]cn1)C(=O)N[C@@H](CCCCN)C(=O)N[C@@H](CO)C(=O)N[C@@H](CO)C(=O)N[C@@H](CC(N)=O)C(=O)N[C@@H](CC(N)=O)C(=O)N[C@@H](Cc1ccccc1)C(=O)NCC(=O)N1CCC[C@H]1C(=O)N[C@H](C(=O)N[C@@H](CC(C)C)C(=O)N1CCC[C@H]1C(=O)N1CCC[C@H]1C(=O)N[C@H](C(=O)N[C@@H](CCCCN)C(=O)N[C@H](C(=O)NCC(=O)N[C@@H](CO)C(=O)N[C@@H](CCC(=O)O)C(=O)N[C@H](C(=O)N[C@@H](Cc1ccc(O)cc1)C(N)=O)[C@@H](C)O)C(C)C)[C@@H](C)O)[C@@H](C)CC)C(=O)O)C(=O)O [Compound A63] (H-SCNTSTCATQRLANEK([γGlu-X4])HKSSNNFGPILPPTKVGSETY-NH2; disulfide 2-7; N-terminus assumed) |  |  |  | 0.54 | 2.66 | 2.81 |
| CCCCCCCCCCCCCCCC(=O)N[C@@H](CCC(=O)N[C@@H](CCC(=O)N[C@@H](CCC(=O)NCCOCCOCC(=O)NCCOCCOCC(=O)N[C@@H](CCC(=O)NCCCC[C@H](NC(=O)[C@H](CCC(=O)O)NC(=O)[C@H](CC(N)=O)NC(=O)[C@H](C)NC(=O)[C@H](CC(C)C)NC(=O)[C@H](CCCNC(=N)N)NC(=O)[C@H](CCC(N)=O)NC(=O)[C@@H](NC(=O)[C@H](C)NC(=O)[C@@H]1CSSC[C@H](NC(=O)[C@@H](N)CO)C(=O)N[C@@H](CC(N)=O)C(=O)N[C@@H]([C@@H](C)O)C(=O)N[C@@H](CO)C(=O)N[C@@H]([C@@H](C)O)C(=O)N1)[C@@H](C)O)C(=O)N[C@@H](Cc1c[nH]cn1)C(=O)N[C@@H](CCCCN)C(=O)N[C@@H](CO)C(=O)N[C@@H](CO)C(=O)N[C@@H](CC(N)=O)C(=O)N[C@@H](CC(N)=O)C(=O)N[C@@H](Cc1ccccc1)C(=O)NCC(=O)N1CCC[C@H]1C(=O)N[C@H](C(=O)N[C@@H](CC(C)C)C(=O)N1CCC[C@H]1C(=O)N1CCC[C@H]1C(=O)N[C@H](C(=O)N[C@@H](CCCCN)C(=O)N[C@H](C(=O)NCC(=O)N[C@@H](CO)C(=O)N[C@@H](CCC(=O)O)C(=O)N[C@H](C(=O)N[C@@H](Cc1ccc(O)cc1)C(N)=O)[C@@H](C)O)C(C)C)[C@@H](C)O)[C@@H](C)CC)C(=O)O)C(=O)O)C(=O)O)C(=O)O [Compound A19] (H-SCNTSTCATQRLANEK([γGlu-AEEA-AEEA-γGlu-γGlu-γGlu-Palmitoyl])HKSSNNFGPILPPTKVGSETY-NH2; disulfide 2-7; N-terminus assumed) |  |  |  | 0.136 | 0.15 | 11.5 |
| CCCCCCCCCCCCCCCC(=O)N[C@@H](CCC(=O)NCCCC[C@H](NC(=O)[C@H](CCC(=O)O)NC(=O)[C@H](CC(N)=O)NC(=O)[C@H](C)NC(=O)[C@H](CC(C)C)NC(=O)[C@H](CCCNC(=N)N)NC(=O)[C@H](CCC(N)=O)NC(=O)[C@@H](NC(=O)[C@H](C)NC(=O)[C@@H]1CSSC[C@H](NC(=O)[C@@H](N)CO)C(=O)N[C@@H](CC(N)=O)C(=O)N[C@@H]([C@@H](C)O)C(=O)N[C@@H](CO)C(=O)N[C@@H]([C@@H](C)O)C(=O)N1)[C@@H](C)O)C(=O)N[C@@H](Cc1c[nH]cn1)C(=O)N[C@@H](CCCCN)C(=O)N[C@@H](CO)C(=O)N[C@@H](CO)C(=O)N[C@@H](CC(N)=O)C(=O)N[C@@H](CC(N)=O)C(=O)N[C@@H](Cc1ccccc1)C(=O)NCC(=O)N1CCC[C@H]1C(=O)N[C@H](C(=O)N[C@@H](CC(C)C)C(=O)N1CCC[C@H]1C(=O)N1CCC[C@H]1C(=O)N[C@H](C(=O)N[C@@H](CCCCN)C(=O)N[C@H](C(=O)NCC(=O)N[C@@H](CO)C(=O)N[C@@H](CCC(=O)O)C(=O)N[C@H](C(=O)N[C@@H](Cc1ccc(O)cc1)C(N)=O)[C@@H](C)O)C(C)C)[C@@H](C)O)[C@@H](C)CC)C(=O)O [Compound A125] (H-SCNTSTCATQRLANEK([γGlu-Palmitoyl])HKSSNNFGPILPPTKVGSETY-NH2; disulfide 2-7) |  |  |  | 0.211 | 3.56 | 0.963 |
| CCCCCCCCCCCCCCCC(=O)N[C@@H](CCC(=O)NCCOCCOCC(=O)NCCOCCOCC(=O)N[C@@H](CCC(=O)N[C@@H](CCC(=O)NCCCC[C@H](NC(=O)[C@H](CCC(=O)O)NC(=O)[C@H](CC(N)=O)NC(=O)[C@H](C)NC(=O)[C@H](CC(C)C)NC(=O)[C@H](CCCNC(=N)N)NC(=O)[C@H](CCC(N)=O)NC(=O)[C@@H](NC(=O)[C@H](C)NC(=O)[C@@H]1CSSC[C@H](NC(=O)[C@@H](N)CO)C(=O)N[C@@H](CC(N)=O)C(=O)N[C@@H]([C@@H](C)O)C(=O)N[C@@H](CO)C(=O)N[C@@H]([C@@H](C)O)C(=O)N1)[C@@H](C)O)C(=O)N[C@@H](Cc1c[nH]cn1)C(=O)N[C@@H](CCCCN)C(=O)N[C@@H](CO)C(=O)N[C@@H](CO)C(=O)N[C@@H](CC(N)=O)C(=O)N[C@@H](CC(N)=O)C(=O)N[C@@H](Cc1ccccc1)C(=O)NCC(=O)N1CCC[C@H]1C(=O)N[C@H](C(=O)N[C@@H](CC(C)C)C(=O)N1CCC[C@H]1C(=O)N1CCC[C@H]1C(=O)N[C@H](C(=O)N[C@@H](CCCCN)C(=O)N[C@H](C(=O)NCC(=O)N[C@@H](CO)C(=O)N[C@@H](CCC(=O)O)C(=O)N[C@H](C(=O)N[C@@H](Cc1ccc(O)cc1)C(N)=O)[C@@H](C)O)C(C)C)[C@@H](C)O)[C@@H](C)CC)C(=O)O)C(=O)O)C(=O)O [Compound A122] (H-SCNTSTCATQRLANEK([γGlu-γGlu-AEEA-AEEA-γGlu-Palmitoyl])HKSSNNFGPILPPTKVGSETY-NH2; disulfide 2-7; N-terminus assumed) |  |  |  | 0.763 | 1.95 | 5.13 |
